In US20250145632A1, “Pyrimidine Heterocyclic Compound, Preparation Method Thereof and use Thereof in Medicine” (INSILICO MEDICINE IP LIMITED, priority 2021, published 2025):

Assays:
[1] = test system: OVCAR-3 human ovarian adenocarcinoma cells; assay: OVCAR-3 tumor cell proliferation inhibition (CellTiter-Glo); type: cell-based; details: 3 d culture
Method: (§1) OVCAR-3 was purchased from ATCC; article No.: HTB-161; RPMI1640 was purchased from Gibco; article No.: 11875-093; Pancreatin (including EDTA) was purchased from Gibco; article No.: 25200-072; FBS was purchased from Gibco; Article No.: 10091-148; CellTiter-Glo was purchased from Promega; article No.: G7573; Bovine insulin was purchased from absin; article No.: abs9169; DMSO was purchased from VWR AMRESCO; article No.: 0231-500ML; Staurosporine was purchased from Selleck; article No.: S1421; a cell counter was purchased from CHEMOMETEC; model: NC-200; and a microplate reader was purchased from PerkinElmer; Model: Envison.
(§2) OVCAR-3 was human ovarian adenocarcinoma cells cultured in an RPMI-1640 culture medium containing 20% FBS and 0.01 mg/mL of Bovine insulin. Cells in logarithmic phase were taken, and the cells were subjected to digesting, collecting and counting with pancreatin-EDTA, 2000 OVCAR-3 cells/well were inoculated in a 384-well cell plate, and were cultured in 5% CO2 overnight. A 1000× compound stock solution with 3.16 times of gradient concentration was prepared with DMSO, and was diluted 100 times to 10× compound stock solution with a culture medium, and 10× compound stock solution was added into each cell culture well on the next day after cell inoculation, wherein the final concentration was 1×, and the DMSO content was 0.1%. The cell group was treated with DMSO as an experimental control (control), and the cell group was treated with 5 μM of Staurosporine as a blank control (blank).

[2] = test system: HCC70 human breast ductal cancer cells; assay: HCC70 tumor cell proliferation inhibition (CellTiter-Glo); type: cell-based; details: 3 d culture
Method: as §1, with “HCC70” for “OVCAR-3”, “CRL-2315;” for “HTB-161;”, “article” for “Article”, “10099-141C;” for “10091-148;”, “G7573;” for “G7573; Bovine insulin was purchased from absin; article No.: abs9169;”
as §2, with “HCC70” for “OVCAR-3”, “breast ductal cancer” for “ovarian adenocarcinoma”, “10% FBS.” for “20% FBS and 0.01 mg/mL of Bovine insulin.”

Row | IC50 [1] | Compound | IC50 [2]
1 | 35.8 nM | CP(C)(=O)c1c2ccc3c(c[nH]c13)-c1nc(ncc1C(F)(F)F)N[C@H]1CC[C@@H](C1)NCC[C@@H](F)CNC2=O (single isomer, unassigned) [Compound Z68-1] | 10.3 nM
2 | 8.84 nM | CP(C)(=O)c1c2ccc3c(c[nH]c13)-c1nc(ncc1C(F)(F)F)N[C@H]1CC[C@@H](C1)NCC[C@H](F)CNC2=O (single isomer, unassigned) [Compound Z68-2] | 3.18 nM
3 | 31.5 nM | CN1C[C@H](F)CCN[C@H]2CC[C@@H](C2)Nc2ncc(C(F)(F)F)c(n2)-c2c[nH]c3c(P(C)(C)=O)c(ccc23)C1=O (single isomer, unassigned) [Compound Z76] | 21.9 nM
4 | – | CP(C)(=O)c1c2ccc3c(c[nH]c13)-c1nc(ncc1C(F)(F)F)N[C@H]1CC[C@@H](C1)NCCCCCNC2=O [Compound Z6, (41 S,4^3S)-1^7-(dimethylphosphoryl)-2^5-(trifluoromethyl)-1^1H-3,5,11-triaza-1(3,6)-indola-2(4,2)-pyrimidina-4(1,3)-cyclopentanacyclododecaphan-12-one] | 222 nM
5 | – | CP(C)(=O)c1c2ccc3c(c[nH]c13)-c1nc(ncc1C(F)(F)F)N[C@H]1CCC[C@@H](C1)NCCCCNC2=O [Compound Z9, (4^1S,4^3S)-1^7-(dimethylphosphoryl)-2^5-(trifluoromethyl)-1^1H-3,5,10-triaza-1(3,6)-indola-2(4,2)-pyrimidina-4(1,3)-cyclohexanacycloundecaphan-11-one] | 99.8 nM
6 | – | CP(C)(=O)c1c2ccc3c(c[nH]c13)-c1nc(ncc1C(F)(F)F)N[C@H]1CC[C@@H](C1)NCCCNC2=O [Compound Z10, (4^1S, 4^3S)-1^7-(dimethylphosphoryl)-2^5-(trifluoromethyl)-1^1H-3,5,9-triaza-1(3,6)-indola-2(4,2)-pyrimidina-4(1,3)-cyclopentanacyclodecaphan-10-one] | 162 nM
7 | – | O=C1NCCCCN[C@H]2CCC(C2)Nc2ncc(C(F)(F)F)c(n2)-c2c[nH]c3c(Cl)c1ccc23 [Compound Z11, (4^1S,43S)-1^7-chloro-2^5-(trifluoromethyl)-1^1H-3,5,10-triaza-1(3,6)-indola-2(4,2)-pyrimidina-4(1,3)-cyclopentanacycloundecaphan-11-one] | 186 nM
8 | – | CN1CCCCNC(=O)c2ccc3c(c[nH]c3c2P(C)(C)=O)-c2nc(ncc2C(F)(F)F)N[C@H]2CC[C@H]1C2 [Compound Z16, (4^1S,43S)-1^7-(dimethylphosphoryl)-5-methyl-2^5-(trifluoromethyl)-1^1H-3,5,10-triaza-1(3,6)-indola-2(4,2)-pyrimidina-4(1,3)-cyclopentanacycloundecaphan-11-one] | 23 nM
9 | – | CP(C)(=O)c1c2ccc3c(c[nH]c13)-c1nc(ncc1C(F)(F)F)N[C@H]1CC[C@@H](C1)NCCC(F)(F)CNC2=O [Compound Z19, (4^1S,43S)-17-(dimethylphosphoryl)-8,8-difluoro-2^5-(trifluoromethyl)-1^1H-3,5,10-triaza-1(3,6)-indola-2(4,2)-pyrimidina-4(1,3)-cyclopentanacycloundecaphan-11-one] | 15.4 nM
10 | 135 nM | N#Cc1c2ccc3c(c[nH]c13)-c1nc(ncc1C(F)(F)F)N[C@H]1CC[C@@H](C1)NCCCCNC2=O [Compound Z23, (4^1S,4^3S)-11-oxo-2^5-(trifluoromethyl)-1^1H-3,5,10-triaza-1(3,6)-indola-2(4,2)-pyrimidina-4(1,3)-cyclopentanacycloundecaphane-17-carbonitrile] | 66.6 nM
11 | – | CN1CCCCN(C)[C@H]2CC[C@@H](C2)Nc2ncc(C(F)(F)F)c(n2)-c2c[nH]c3c(P(C)(C)=O)c(ccc23)C1=O [Compound Z27, (4^1S,4^3S)-1^7-(dimethylphosphoryl)-5,10-dimethyl-2^5-(trifluoromethyl)-1^1H-3,5,10-triaza-1(3,6)-indola-2(4,2)-pyrimidina-4(1,3)-cyclopentanacycloundecaphan-11-one] | 9.7 nM
12 | – | CC1CCCNC(=O)c2ccc3c(c[nH]c3c2P(C)(C)=O)-c2nc(ncc2C(F)(F)F)N[C@H]2CC[C@@H](C2)N1 (stereo partly shown) [Compound Z58, (4^1S,4^3S)-1^7-(dimethylphosphoryl)-6-methyl-2^5-(trifluoromethyl)-1^1H-3,5,10-triaza-1(3,6)-indola-2(4,2)-pyrimidina-4(1,3)-cyclopentanacycloundecaphan-11-one] | 233 nM
13 | – | CP(C)(=O)c1c2ccc3c(c[nH]c13)-c1nc(ncc1C(F)(F)F)N[C@H]1CC[C@@H](C1)NCCCCCCNC2=O [Compound Z59, (4^1S,4^3S)-1^7-(dimethylphosphoryl)-2^5-(trifluoromethyl)-1^1H-3,5,12-triaza-1(3,6)-indola-2(4,2)-pyrimidina-4(1,3)-cyclopentanacyclotridecaphan-13-one] | 422 nM
14 | – | CN1CCOCCNC(=O)c2ccc3c(c[nH]c3c2P(C)(C)=O)-c2nc(ncc2C(F)(F)F)NC2CCC1C2 [Compound Z60, (4^1S,43S)-17-(dimethylphosphoryl)-5-methyl-2^5-(trifluoromethyl)-1^1H-8-oxa-3,5,11-triaza-1(3,6)-indola-2(4,2)-pyrimidina-4(1,3)-cyclopentanacyclododecaphan-12-one] | 89 nM
15 | 15.9 nM | CN1CCCCNC2CCC(C2)Nc2ncc(C(F)(F)F)c(n2)-c2c[nH]c3c(P(C)(C)=O)c(ccc23)C1=O (stereo not shown) [Compound Z62, (41 S,4^3S)-1^7-(dimethylphosphoryl)-10-methyl-2^5-(trifluoromethyl)-1^1H-3,5,10-triaza-1(3,6)-indola-2(4,2)-pyrimidina-4(1,3)-cyclopentanacycloundecaphan-11-one] | 24.6 nM
16 | 195 nM | CN1CCOCCN(C)[C@H]2CC[C@@H](C2)Nc2ncc(C(F)(F)F)c(n2)-c2c[nH]c3c(P(C)(C)=O)c(ccc23)C1=O [Compound Z63, (4^1S,4^3S)-1^7-(dimethylphosphoryl)-5,11-dimethyl-2^5-(trifluoromethyl)-1^1H-8-oxa-3,5,11-triaza-1(3,6)-indola-2(4,2)-pyrimidina-4(1,3)-cyclopentanacyclododecaphan-12-one] | 134 nM
17 | 98.6 nM | CN1CCOCCN[C@H]2CC[C@@H](C2)Nc2ncc(C(F)(F)F)c(n2)-c2c[nH]c3c(P(C)(C)=O)c(ccc23)C1=O [Compound Z64, (4^1S,4^3S)-1^7-(dimethylphosphoryl)-11-methyl-2^5-(trifluoromethyl)-1^1H-8-oxa-3,5,11-triaza-1(3,6)-indola-2(4,2)-pyrimidina-4(1,3)-cyclopentanacyclododecaphan-12-one] | 42.8 nM
18 | – | CN1CCOCCNC2CCC(C2)Nc2ncc(C(F)(F)F)c(n2)-c2c[nH]c3c(S(C)(=O)=O)c(ccc23)C1=O (stereo not shown) [Compound Z72, (4^1S,4^3S)-11-methyl-1^7-(methylsulfonyl)-2^5-(trifluoromethyl)-1^1H-8-oxa-3,5,11-triaza-1(3,6)-indola-2(4,2)-pyrimidina-4(1,3)-cyclopentanacyclododecaphan-12-one] | 869 nM
19 | – | CN1CCC(F)CN(C)C2CC[C@@H](C2)Nc2ncc(C(F)(F)F)c(n2)-c2c[nH]c3c(P(C)(C)=O)c(ccc23)C1=O (stereo partly shown) [Compound Z87, (4^1S)-1^7-(dimethylphosphoryl)-7-fluoro-5,10-dimethyl-2^5-(trifluoromethyl)-1^1H-3,5,10-triaza-1(3,6)-indola-2(4,2)-pyrimidina-4(1,3)-cyclopentanacycloundecaphan-11-one] | 243 nM
20 | – | CN1CCC(F)CN(C)C2CC[C@@H](C2)Nc2ncc(C(F)(F)F)c(n2)-c2c[nH]c3c(P(C)(C)=O)c(ccc23)C1=O (stereo partly shown) [Compound Z88, (4^1S)-1^7-(dimethylphosphoryl)-7-fluoro-5,10-dimethyl-2^5-(trifluoromethyl)-1^1H-3,5,10-triaza-1(3,6)-indola-2(4,2)-pyrimidina-4(1,3)-cyclopentanacycloundecaphan-11-one] | 241 nM
21 | – | (4^3S)-1^7-(dimethylphosphoryl)-2^5-(trifluoromethyl)-1^1H-3,11-diaza-1(3,6)-indola-2(4,2)-pyrimidina-4(3,1)-piperidinacyclododecaphan-12-one [Compound Z61] | 390 nM
